From patent US7041785B1, “B1-bradykinin receptor antagonists and use thereof” (Université de Sherbrooke, priority 1996, dated 2006)

Tests used:
[1] = system: streptozotocin-induced diabetic mice; conditions: mouse, in vivo
Experimental: Male C57BL/Ks mdb mice were injected with streptozotocin (40 mg/kg) for 5 consecutive days. […] Treatment with antagonists was started 3 days after STZ and lasted for 10 days. Plasma glucose was determined by the glucose oxidase method, and 13 days urinary samples were assayed for proteins, nitrites and kallikreins.
Male C57BL/Ksmdb mice, 3 month old were provided by National Institute of Genetic, Buenos Aires. The animals were housed at a constant room temperature, with a 12 h light-dark cycle.
Blood (50–60 ul) was collected from the tail vein of non fasting animals in heparinized capillary tubes. Blood samples were taken one day before starting the STZ injection and at the day 13, just before sacrifice. Blood samples were centrifuged and the plasma immediately diluted into the appropriate buffer. Plasma glucose was determined by a glucose oxidase method (the kit was obtained from Wiener, Argentina). […] Urinary volume was determined gravimetrically and urinary samples were assayed for proteins^45, nitrites^40 and kallikrein^47.
Streptozotocin was purchased from the Sigma Chem Co., St. Louis, Mo. […] The paranitroanilide (pNA) released by enzymatic action on the substrate was measured calorimetrically to determine kallikrein activity
All data were expressed as mean=S.E. Analysis of Variance (ANOVA) was performed to evaluate differences among the groups. p<0.05 was considered as significant.

BK-B1 receptor = biological target: T1, BK-B1 receptor (Rattus norvegicus, UniProt P97583); test: Isometric contraction of portal vein segments from STZ-induced diabetic rats; assay type: cell-based; conditions: P<0.001
T1 construct: Segments of the portal vein (a known preparation for BK studies) from these rats were mounted in organ baths; from tissue; host or cells: rat portal vein segments (STZ-diabetic and normal rats)
T1 sequence (P97583 1-337): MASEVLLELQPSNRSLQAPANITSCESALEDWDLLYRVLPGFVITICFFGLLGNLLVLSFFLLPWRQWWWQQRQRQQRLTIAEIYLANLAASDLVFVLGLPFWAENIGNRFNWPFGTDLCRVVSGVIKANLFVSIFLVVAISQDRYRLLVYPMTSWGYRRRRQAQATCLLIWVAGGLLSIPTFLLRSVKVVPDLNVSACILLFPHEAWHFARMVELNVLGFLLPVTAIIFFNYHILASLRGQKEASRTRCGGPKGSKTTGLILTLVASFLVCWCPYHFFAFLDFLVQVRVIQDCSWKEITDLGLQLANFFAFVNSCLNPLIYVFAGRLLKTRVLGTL
From the text: Capillary permeability is known to be selectively augmented in the streptozotocin (STZ) diabetic rat model^49. The vascular BK receptors in the STZ-induced diabetic rat was examined. Segments of the portal vein (a known preparation for BK studies) from these rats were mounted in organ baths for isometric contraction studies. The response to desArg^9BK, a specific BK–B1 receptor agonist, was enhanced by 118% in the diabetic tissue, compared to normal portal veins (0.48 vs 0.22g: P<0.001). […] HOE140, the BK–B2 receptor antagonist, had no effect on the diabetic portal vein abnormality. Evans blue (EB: 20 mg/kg), a marker of albumin extravasation, was injected to unanesthetized diabetic rats. […] Therefore, it was concluded that post-capillary hypercontractility to BK (via its B1 receptor) forces EB extravasation, and likely contributed to the diabetic vasculopathy.

[2] = biological target: T2, angiotensin-converting enzyme (ACE) from rabbit lungs (Oryctolagus cuniculus, UniProt P12822); conditions: cited from earlier work
T2 sequence (P12822 34-1310): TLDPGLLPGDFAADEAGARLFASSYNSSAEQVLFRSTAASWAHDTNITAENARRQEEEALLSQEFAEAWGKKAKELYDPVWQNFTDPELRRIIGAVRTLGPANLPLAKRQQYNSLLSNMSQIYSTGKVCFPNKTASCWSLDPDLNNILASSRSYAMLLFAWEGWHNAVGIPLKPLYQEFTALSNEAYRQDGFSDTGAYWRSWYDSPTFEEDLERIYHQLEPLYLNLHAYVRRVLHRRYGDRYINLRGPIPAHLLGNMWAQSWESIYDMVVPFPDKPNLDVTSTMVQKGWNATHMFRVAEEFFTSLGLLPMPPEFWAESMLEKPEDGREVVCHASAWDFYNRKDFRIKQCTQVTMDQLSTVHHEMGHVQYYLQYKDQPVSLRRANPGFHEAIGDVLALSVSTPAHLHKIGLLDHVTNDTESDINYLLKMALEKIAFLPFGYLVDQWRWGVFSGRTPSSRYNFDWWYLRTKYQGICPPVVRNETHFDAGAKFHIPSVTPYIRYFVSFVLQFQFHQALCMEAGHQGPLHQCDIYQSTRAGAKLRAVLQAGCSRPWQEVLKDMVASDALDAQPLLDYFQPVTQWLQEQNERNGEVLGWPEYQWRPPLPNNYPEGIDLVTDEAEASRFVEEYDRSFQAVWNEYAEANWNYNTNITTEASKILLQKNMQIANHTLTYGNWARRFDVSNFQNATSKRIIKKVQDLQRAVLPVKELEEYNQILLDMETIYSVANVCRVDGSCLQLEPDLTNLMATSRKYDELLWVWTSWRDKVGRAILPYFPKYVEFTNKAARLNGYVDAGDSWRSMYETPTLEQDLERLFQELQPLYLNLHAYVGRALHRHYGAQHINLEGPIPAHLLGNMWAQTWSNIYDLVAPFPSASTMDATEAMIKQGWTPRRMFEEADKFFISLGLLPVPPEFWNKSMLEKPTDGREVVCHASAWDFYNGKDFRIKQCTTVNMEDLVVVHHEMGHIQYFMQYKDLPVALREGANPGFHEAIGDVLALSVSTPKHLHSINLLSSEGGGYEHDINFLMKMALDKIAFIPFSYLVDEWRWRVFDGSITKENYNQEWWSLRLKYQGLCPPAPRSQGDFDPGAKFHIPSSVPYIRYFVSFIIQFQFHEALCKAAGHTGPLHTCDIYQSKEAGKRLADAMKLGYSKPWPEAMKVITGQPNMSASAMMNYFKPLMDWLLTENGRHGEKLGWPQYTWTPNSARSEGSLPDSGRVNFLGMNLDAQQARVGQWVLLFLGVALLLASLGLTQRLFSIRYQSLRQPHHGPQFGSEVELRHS

| Structure (SMILES) | Body weight [1] | Enhancement of response in diabetic tissue compared to normal portal veins (BK-B1 receptor) [%] | Metabolism of naturally-occurring kinins by ACE [2] |
| --- | --- | --- | --- |
| NC(N)=NCCC[C@@H](N)C(=O)N[C@@H](CCCN=C(N)N)C(=O)N1CCC[C@H]1C(=O)N1C[C@H](O)C[C@H]1C(=O)NCC(=O)N[C@@H](Cc1cccs1)C(=O)N[C@@H](CO)C(=O)N1Cc2ccccc2C[C@@H]1C(=O)N1[C@H](C(=O)N[C@@H](CCCN=C(N)N)C(=O)O)C[C@@H]2CCCC[C@@H]21 [HOE140, D-Arg(Hyp^3, Thi^5, D-Tic^7, Oic^8)BK] | No changes of body weight |  |  |
| N=C(N)NCCC[C@H](N)C(=O)N1CCC[C@H]1C(=O)N1CCC[C@H]1C(=O)NCC(=O)N[C@@H](Cc1ccccc1)C(=O)N[C@@H](CO)C(=O)N1CCC[C@H]1C(=O)N[C@@H](Cc1ccccc1)C(=O)O [desArg^9BK, Arg-Pro-Pro-G1y-Phe-Ser-Pro-Phe] |  | 118 | fully metabolised |
